Measured values taken from paper PMC6515479, “An Investigation on Glucuronidation Metabolite Identification, Isozyme Contribution, and Species Differences of GL-V9 In Vitro and In Vivo” (Molecules, 2019).

Key:
rUGT1A10 = target: T1, rUGT1A10 (Homo sapiens, UniProt Q9HAW8); assay: UGT phenotyping of GL-V9 glucuronidation, rUGT1A10; assay type: in vitro ADME; conditions: GL-V9 0.5, 1, 5 μM, 37 °C, 1 h
T1 construct: purchased Corning (Woburn, MA, USA)
T1 sequence (Q9HAW8 26-530): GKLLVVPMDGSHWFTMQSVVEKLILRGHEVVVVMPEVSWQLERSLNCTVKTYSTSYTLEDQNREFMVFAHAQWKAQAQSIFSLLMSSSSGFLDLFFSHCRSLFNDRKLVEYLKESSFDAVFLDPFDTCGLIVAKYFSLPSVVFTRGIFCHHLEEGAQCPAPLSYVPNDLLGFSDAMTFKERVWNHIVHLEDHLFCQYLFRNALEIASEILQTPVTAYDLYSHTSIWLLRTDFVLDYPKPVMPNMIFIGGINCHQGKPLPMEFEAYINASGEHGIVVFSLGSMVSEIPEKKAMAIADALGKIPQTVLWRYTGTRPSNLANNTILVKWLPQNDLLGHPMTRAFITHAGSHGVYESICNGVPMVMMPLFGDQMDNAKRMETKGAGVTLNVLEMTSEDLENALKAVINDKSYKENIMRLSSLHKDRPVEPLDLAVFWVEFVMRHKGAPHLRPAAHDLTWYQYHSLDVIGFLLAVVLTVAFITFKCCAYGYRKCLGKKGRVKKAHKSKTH
Procedure: (§1) The composition of the incubation system (200 μL) contained liver microsomes of different species (0.1 mg protein/mL), 5 mM saccharolactone (D-saccharic acid 1,4-lactone monohydrate), 10 mM MgCl2, alamethicin (50 μg/mg protein), Tris-HCl buffer (50 mM, pH 7.4) and GL-V9 (1 μM). After 5 min of preincubation at 37 °C, UDPGA (5 mM) was added to initiate the phase II reaction. Control incubation samples were performed without UDPGA or without substrates (GL-V9). The reaction was terminated by addition of ice-cold methanol (three volumes) after incubation for 1 h at 37 °C. Samples were vortexed, centrifuged at 21,500× g for 10 min and then stored at 4 °C until HPLC-UV-TripleTOF analysis. To confirm that these metabolites are conjugates resulting from glucuronidation reaction, enzymatic hydrolysis of samples was processed. β-glucuronidase (100 KU, Sigma) was added and the hydrolysis was performed overnight at 37 °C. The control samples were carried out without β-glucuronidase under the same condition.
(§2) Twelve human recombinant UGT isoforms (rUGT1A1, rUGT1A3, rUGT1A4, rUGT1A6, rUGT1A7, rUGT1A8, rUGT1A9, rUGT1A10, rUGT2B4, rUGT2B7, rUGT2B15, and rUGT2B17) were employed to identify the main UGT enzyme(s) responsible for glucuronidation of GL-V9 under mixture conditions as described in Section 4.3. […]

[1] = cited from earlier work
[2] = test system: rat liver microsomes (RLMs); assay: Enzyme kinetics of GL-V9 glucuronidation in rat liver microsomes (RLMs); assay type: in vitro ADME; conditions: formation of 5-O-glucuronide GL-V9, protein 0.1 mg/mL, mean ± SD, n = 3
Procedure: as §1
(§3) Enzyme kinetics experiments were carried out in triplicate among five different species, including monkey, beagle dog, rat, mouse, and human. The reaction system and operations are as same as described in Section 4.3. The solutions of GL-V9 were selected over a range of concentrations (0.05, 0.2, 0.5, 1, 2, 5, 10, 20 μM). […]

[3] = as above; assay type: in vitro ADME; conditions: rat, liver microsomes, pH 7.4, formation of 5-O-glucuronide GL-V9, protein 0.1 mg/mL, mean ± SD, n = 3
Procedure: as §1, §3

rUGT2B15 = target: T2, rUGT2B15 (Homo sapiens, UniProt P54855); assay: UGT phenotyping of GL-V9 glucuronidation, rUGT2B15; assay type: in vitro ADME; conditions: GL-V9 0.5, 1, 5 μM, 37 °C, 1 h
T2 construct: purchased Corning (Woburn, MA, USA)
T2 sequence (P54855 24-530): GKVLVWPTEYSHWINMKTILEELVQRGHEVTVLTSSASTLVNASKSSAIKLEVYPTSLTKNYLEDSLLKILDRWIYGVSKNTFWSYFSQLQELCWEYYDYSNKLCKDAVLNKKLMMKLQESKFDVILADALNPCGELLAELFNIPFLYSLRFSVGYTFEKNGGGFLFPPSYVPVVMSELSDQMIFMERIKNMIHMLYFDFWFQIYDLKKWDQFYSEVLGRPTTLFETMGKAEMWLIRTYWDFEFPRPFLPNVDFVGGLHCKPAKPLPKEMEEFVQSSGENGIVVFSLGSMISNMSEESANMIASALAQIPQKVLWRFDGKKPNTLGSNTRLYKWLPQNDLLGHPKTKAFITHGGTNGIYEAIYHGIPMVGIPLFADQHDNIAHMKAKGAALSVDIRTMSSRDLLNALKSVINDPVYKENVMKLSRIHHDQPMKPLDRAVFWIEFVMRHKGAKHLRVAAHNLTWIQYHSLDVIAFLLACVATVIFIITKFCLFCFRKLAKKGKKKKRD
Procedure: as §1, §2

[4] = GL-V9 in rat plasma, oral (gavage) GL-V9 50 mg/kg, n=6, mean ± SD
[5] = GL-V9 in rats, oral GL-V9 50 mg/kg, n=6, mean ± SD

COc1c(OCCCCN2CCCC2)cc(O)c2c(=O)cc(-c3ccccc3)oc12 [GL-V9]
Metabolism rate (glucuronidation) (rUGT1A10): too low to be biologically relevant | AUC(0-t) [1, 4]: 1212.06 ± 246.47 ng·h/mL | Cmax [1, 4]: 167.33 ± 50.05 ng/mL | T1/2 [1, 4]: 3.08 ± 1.05 h | AUC(0-inf) ([1]; GL-V9 in rat plasma, oral GL-V9 50 mg/kg, n=6, mean ± SD): 1256.04 ± 271.82 ng·h/mL | Tmax ([1]; GL-V9 in rat plasma, oral GL-V9 50 mg/kg, n=6): 18.6 to 46.2 min | F ([1]; GL-V9 in rats, oral GL-V9 50 mg/kg): 8.54% | CL [1, 5]: 41.38 ± 8.84 L/h/kg | MRT0-t [1, 5]: 7.70 ± 0.91 h | Vd [1, 5]: 181.06 ± 63.57 L/kg | Vmax [2]: 32.72 ± 1.45 pmol/min/mg | Km at 1 h [3]: 6.54 ± 0.33 µM | Catalytic activity in the production of 5-O-glucuronide GL-V9 (rUGT2B15): did not show apparent catalytic activity
